Here are results for eleven molecules from patent US8809372B2, “Pyridine derivatives” (Endo Pharmaceuticals, Inc., priority 2011, dated 2014).

Test [1] relates to testosterone production in H295R cells. Kind of test: Cell-based functional assay for testosterone production. Set-up: species or system human. How it is done: Cell-Based Functional Assay for Testosterone Production
H295R cells (ATCC Number CRL-2128) were subcultured, seeded (30,000 cells per well in a poly-d lysine plate) and left overnight at 37° C. The next day (after approximately 24 hours), the media were removed and 200 μL fresh media were added. Then, 50 μL of serially diluted compounds was added from a 5× plate. The serial dilution in the 100× plate (in DMSO) and the stamping of a 5× plate (in media) from the 100× plate were carried out using a TECAN liquid handling device. The plate was incubated at 37° C. for 72 hours. After incubation, the media was removed, diluted 5 to 10 times with calibration diluent RD5-48, and the assay performed as per manufacturer's protocol (Parameter Testosterone Assay, Cat. No. KGE010, R&D systems; http://www.mdsystems.com/pdf/KGE010.pdf).

Another test addresses T1, human CYP17 (Homo sapiens, UniProt P05093).
T1 construct: purchased Premas Biotech, India; host or cells: yeast (microsomes)
T1 sequence (P05093 1-508): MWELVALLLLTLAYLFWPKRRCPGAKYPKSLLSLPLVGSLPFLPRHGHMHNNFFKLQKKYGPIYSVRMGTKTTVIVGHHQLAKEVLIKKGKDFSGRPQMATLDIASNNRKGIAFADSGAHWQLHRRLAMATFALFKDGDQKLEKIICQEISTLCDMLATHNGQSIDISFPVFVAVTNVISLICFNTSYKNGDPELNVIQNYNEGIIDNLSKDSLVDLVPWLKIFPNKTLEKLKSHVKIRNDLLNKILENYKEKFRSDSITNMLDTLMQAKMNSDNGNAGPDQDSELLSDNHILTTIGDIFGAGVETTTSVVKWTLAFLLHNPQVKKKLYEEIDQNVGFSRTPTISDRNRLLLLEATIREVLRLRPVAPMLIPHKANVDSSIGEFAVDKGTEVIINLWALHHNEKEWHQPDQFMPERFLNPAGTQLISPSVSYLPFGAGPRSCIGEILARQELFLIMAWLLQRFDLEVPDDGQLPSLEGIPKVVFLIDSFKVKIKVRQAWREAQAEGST
As to the kind of experiment: CYP17 inhibition assay in yeast microsomes overexpressing human CYP17. It is filed as biochemical. Particulars: yeast microsomes expressing human CYP17. On the procedure: CYP17 Inhibition Assay in Rat Testicular Microsomes (Rat CYP17) or Yeast Microsome Overexpressing Human CYP17
1. NADPH (Sigma): A working stock was prepared by adding 25 μL of 6.5 mM NADPH in each tube. The final concentration of NADPH used in the assay was 325 μM.
2. Potassium Phosphate Buffer: One molar (1M) solutions of K2HPO4 and KH2PO4 were prepared. Eight mL of the 1 M KH2PO4 and 1.98 mL of the 1 M K2HPO4 were combined and the pH was adjusted to 7.4.
3. ^3H3-17α-hydroxypregnenolone (American Radiolabeled Chemicals, Inc., stock 1 μCi/μL): A 1:1 dilution of ^3H3-17α-hydroxypregnenolone in ethanol was prepared by combining 100 μL ^3H3-17α-hydroxypregnenolone+100 μL ethanol for one complete 96 well plate. For the reaction, 2 μL of the diluted ^3H3-17α-hydroxypregnenolone was added in each tube, i.e., 1 μCi/reaction. 4. Microsome Isolation Buffer: The microsome isolation buffer was prepared by combining 250 mM Sucrose, 5 mM EDTA, 10 mM Tris HCl, 4 mM DTT, and adjusting to pH 7.4. 5. TEG Buffer: The TEG buffer was prepared by combining 50 mM Tris HCl, 1 mM EDTA, and 20% Glycerol. 6. Rat Testicular Microsomes: Rat testis tissue was collected and disrupted with 30 strokes of a glass homogenizer on ice with 250 μL of microsome isolation buffer, followed by centrifugation at 10,000 g for 10 minutes at 4° C. The supernatant was collected and centrifuged at 100,000 g for 45 minutes at 4° C. The pellet was dissolved in TEG Buffer and the protein was quantified. The homogenized microsome samples were then frozen at −80° C. • 7. Yeast Microsomes which overexpress the human CYP17 enzyme were obtained from Premas Biotech, India.
Potassium phosphate buffer (470 μL) was prepared as described above and was added to each well of a deep well plate. The test compound was diluted using a TECAN liquid handler and 5 μL of diluted compound was transferred to each well (96 deep well/1 mL). A solution (25 μL) of 6.5 mM NADPH was added (final concentration of 325 μM in the assay). ^3H3-17α-hydroxypregnenolone (2 μL of the working stock) was added to each tube. The plates were then pre-incubated for 15 minutes at 37° C. Following the pre-incubation, either 5 μL rat testicular microsomes (150-160 μg) or 5 μL of yeast microsomes expressing human CYP17 (1.7 pmol), was added. Incubation was at 37° C. for 60 minutes in the presence of oxygen. The plates were then placed in ice and chloroform (500 μL) was added, mixed well and incubated at 4° C. for 20 minutes. The plates were then centrifuged at 1000 rpm for 15 minutes at 4° C.
A portion (300 μL) of the aqueous solution was collected and mixed with a 5% aqueous suspension of activated charcoal (300 μL). The plates were then incubated at 4° C. for 30 minutes, after which the plates were centrifuged at 1000 rpm for 15 minutes at 4° C. From this, 125 μL of the aqueous solution was collected and plated into a 96 well plate. Microscint™ 40 [125 μL, Perkin-Elmer; containing a mixture of a polymer based on alkylphenolethoxylate (20-40%), diethanolamine-phosphoric acid ester ammonium salt (10-20%), sodium dioctyl sulphosuccinate (2.5-10%), triethyl phosphate (2.5-10%), 3,6-dimethyl-4-octyne-3,6-diol (≦2.5%), a polymer based on nonylphenolethoxylate (≦2.5%), diisopropyl naphthalene isomers (40-60%), 2,5-diphenyloxazole (≦2.5%), and 9,10-dimethylanthracene] was added and mixed well. After 30 minutes of incubation, the samples were analyzed with a MicroBeta® Trilux microplate liquid scintillation counter and luminometer (Perkin-Elmer).

A further test has as its system serum testosterone level. As to the kind of experiment: In vivo inhibition of testosterone production. Also noted: species or system rat. Conditions: male rats, vs vehicle-dosed controls. How it is done:
In vivo Inhibition of Testosterone Production
Male rats aged 8 to 10 weeks old were dosed orally with compounds at 10 or 30 mg/kg. Blood samples were drawn at 0.5, 3, 8, and 24 hours and were processed to plasma samples. Samples were analyzed for compound levels by LC-MS/MS method and for testosterone levels with an ELISA performed as per manufacturer's protocol (Parameter Testosterone Assay, Cat. No. KGE010, R&D systems; http://www.mdsystems.com/pdf/KGE010.pdf). The serum testosterone level was calculated from standards using GraphPad® Prism software and % inhibition at a given time was calculated by comparing the testosterone level in vehicle control animals at the same time of day.

Setting [2] is: Homo sapiens, NCI-H295R, 72 h, read-out: Testosterone (human H295R adrenal cells), H295R cells, 72 hours.
Setting [3] is: Homo sapiens, NCI-H295R, 72 h, read-out: Testosterone (human H295R adrenal cells).
Where [4] appears, read: read-out: Testosterone (human H295R adrenal cells), H295R cells, 72 hours.
Where [5] appears, read: 3-8 hours after a 30 mg/kg oral dose.

pIC50: −log10 of the molar value. Read-outs that look alike come from different tables or passages of the source.

On to `COc1ccc(-c2ccc(C(C)(O)c3ccncc3)nc2)cc1` (single isomer, unassigned) [Example 3, 1-(5-(4-methoxyphenyl)-pyridin-2-yl)-1-(pyridin-4-yl)ethanol], for which, in test [1] (setting [2]), the pIC50 was 6.70 to 7.30.

The molecule `Cn1cc(-c2ccc(C(C)(O)c3ccncc3)s2)ccc1=O` (centres unmarked) [Example 15, 5-(5-(1-Hydroxy-1-(pyridin-4-yl)ethyl)thiophen-2-yl)-1-methyl-pyridin-2(1H)-one] showed a pIC50 on human CYP17 of 5.00 to 6.70.

In the case of `CC(O)(c1ccncc1)c1cnc(-c2ccc(F)cc2)s1` (racemic) [Example 7, 1-(2-(4-Fluorophenyl)thiazol-5-yl)-1-(pyridin-4-yl)ethanol], the values for the pIC50 (against human CYP17; in test [1] (setting [3])) were 6.70 to 7.30 and greater than 7.30, respectively. For the same molecule, in the test on serum testosterone level (3-8 hours after a 10 mg/kg oral dose), the “decrease of serum testosterone levels” value was 70-85%.

Regarding `COc1ccc(-c2ccc(C(C)(O)c3ccncc3)nc2)cc1` (single isomer, unassigned) [Example 2, 1-(5-(4-methoxyphenyl)-pyridin-2-yl)-1-(pyridin-4-yl)ethanol], in test [1] (setting [4]), the pIC50 was 6.70 to 7.30.

With `CCC(O)(c1ccncc1)c1cnc(-c2ccc(F)cc2)s1` (centres unmarked) [Example 4, 1-(2-(4-fluorophenyl)-thiazol-5-yl)-1-(pyridin-4-yl)propan-1-ol], the pIC50 in test [1] (setting [2]) is greater than 7.30.

With `CC(O)(c1ccncc1)c1ncc(-c2ccc(F)cc2)s1` (centres unmarked) [Example 14, 1-(5-(4-Fluorophenyl)thiazol-2-yl)-1-(pyridin-4-yl)ethanol], in the test on serum testosterone level (setting [5]), the “decrease of serum testosterone levels” value is reported as 60-80%.

Take `COc1ccc(-c2ccc(C(C)(O)c3ccncc3)nc2)cc1` (racemic) [Example 1, 1-(5-(4-Methoxyphenyl)pyridin-2-yl)-1-(pyridin-4-yl)ethanol]: the pIC50 was 5.00 to 6.70 against human CYP17 and 6.70 to 7.30 in test [1] (setting [3]).

With `CC(O)(c1ccncc1)c1cnc(-c2ccc(F)cc2)s1` (single isomer, unassigned) [Example 8, 1-(2-(4-fluorophenyl)thiazol-5-yl)-1-(pyridin-4-yl)ethanol], the figures for the pIC50 (against human CYP17; in test [1] (setting [2])) were 5.00 to 6.70 and 6.70 to 7.30, respectively.

On human CYP17, `CC(O)(c1ccncc1)c1nc(-c2ccc(F)cc2)no1` (single isomer, unassigned; (+)) [Example 36, (+)-1-(3-(4-fluoro-phenyl)-1,2,4-oxadiazol-5-yl)-1-(pyridin-4-yl)ethanol] gave a pIC50 greater than 7.30.

`Cn1cc(-c2ccc(C(C)(O)c3ccncc3)s2)ccc1=O` (single isomer, unassigned; (-)) [Example 17, (−)-5-(5-(1-hydroxy-1-(pyridin-4-yl)ethyl)thiophen-2-yl)-1-methylpyridin-2(1H)-one] showed a pIC50 at human CYP17 of 6.70 to 7.30. The “decrease of serum testosterone levels” value with serum testosterone level (setting [5]) was 30-60%.

As to `CC(O)(c1ccncc1)c1cnc(-c2ccc(F)cc2)s1` (single isomer, unassigned) [Example 9, 1-(2-(4-fluorophenyl)thiazol-5-yl)-1-(pyridin-4-yl)ethanol], the pIC50 is 6.70 to 7.30 against human CYP17 and greater than 7.30 in test [1] (setting [4]).
